According to ChEMBL document CHEMBL1140310, “[Nalpha-benzylTyr1,cyclo(D-Asp5,Dap8)]- dynorphin A-(1-11)NH2 cyclized in the "address" domain is a novel kappa-opioid receptor antagonist” (J Med Chem, 2005):

Columns and labels:
[1] = Inhibition of [3H]-DPDPE (cyclo[D-Pen2,D-Pen5]enkep halin) binding to delta opioid receptor expressed in CHO cells; assay type: cell-based
[2] = Inhibition of [3H]diprenorphine binding to kappa opioid receptor expressed in CHO cells; assay type: cell-based
[3] = Relative binding affinity for kappa and delta opioid receptors
[4] = Relative binding affinity for kappa and mu opioid receptors
[5] = Inhibition of [3H]DAMGO ([D-Ala2,NMePhe4,glyol]-enkephalin) binding to mu opioid receptor expressed in CHO cells; assay type: cell-based

| Ratio [3] | Ratio [4] | SMILES | Ki [1] | Ki [2] | Ki [5] |
| --- | --- | --- | --- | --- | --- |
| 0.09 | 0.33 | CC[C@H](C)[C@H](NC(=O)[C@H](CCCN=C(N)N)NC(=O)[C@H](CCCN=C(N)N)NC(=O)[C@H](CC(C)C)NC(=O)[C@H](Cc1ccccc1)NC(=O)CNC(=O)CNC(=O)[C@@H](N)Cc1ccc(O)cc1)C(=O)N[C@@H](CCCN=C(N)N)C(=O)N1CCC[C@H]1C(=O)N[C@@H](CCCCN)C(N)=O | 0.00618 µM | 0.00057 µM | – |
| 0.003 | 0.005 | NCCCC[C@H](NC(=O)[C@@H]1CCCN1C(=O)[C@H](CCCN=C(N)N)NC(=O)[C@@H]1CNC(=O)C[C@H](NC(=O)[C@H](Cc2ccccc2)NC(=O)CNC(=O)CNC(=O)[C@H](Cc2ccc(O)cc2)NCc2ccccc2)C(=O)N[C@H](CCCN=C(N)N)C(=O)N[C@@H](CCCN=C(N)N)C(=O)N1)C(N)=O | > 10 µM | 0.0303 µM | 5.88 µM |
| 0.007 | 0.04 | CC(=O)NC[C@H](NC(=O)[C@H](CCCNC(=N)N)NC(=O)[C@H](CCCNC(=N)N)NC(=O)[C@@H](CC(N)=O)NC(=O)[C@H](Cc1ccccc1)NC(=O)CNC(=O)CNC(=O)[C@H](Cc1ccc(O)cc1)NCc1ccccc1)C(=O)N[C@@H](CCCNC(=N)N)C(=O)N1CCC[C@H]1C(=O)N[C@@H](CCCCN)C(N)=O | > 10 µM | 0.0669 µM | 1.66 µM |
